Experimental findings from patent US10988786B2, “Mutant 4-hydroxyphenylacetate 3-hydroxylases and uses thereof” (SYMRISE AG, priority 2015, dated 2021) are described below.

Data set [1] concerns the target T1, 4HPA3H (Escherichia coli, UniProt Q57160).
T1 construct: expressed in transfected cells; host or cells: E. coli BL21(DE3)
Kind of data set: Whole-cell hydroxylation, cells expressing wild-type 4HPA3H. Type of data set: cell-based, E. coli. The conditions noted are these: BL21(DE3) cells expressing wild-type 4HPA3H.
Protocol: (§1) Substrates (200 μM) as shown in FIG. 1 were added to suspensions of bacterial cells expressing 4HPA3H or its single (A) and double variants (B). After incubation for 16 hours, catechols and residual substrates were extracted and analyzed by HPLC
(§2) Suspensions of the cells were tested for hydroxylation of a panel of eight phenolic compounds (FIG. 1) which belong to different classes of natural products: we included (I) phenolic acids and ketones such as p-coumaric acid (1), ferulic acid (3), rheosmin (15) and p-hydroxybenzoic acid (9), (II) polycyclic compounds such as the hydroxycoumarin umbelliferone (13), the stilbene resveratrol (5) and the flavonoid naringenin (7). […] 4HPA3H was also tested for conversion of 4-methoxycinnamic acid and 4-aminocinnamic acid.

Data set [2] deals with T2, wild-type 4HPA3H (Escherichia coli, UniProt Q57160).
T2 construct: made in house; host or cells: E. coli BL21(DE3)
Kind of data set: In vitro hydroxylation by the 4HPA3H/PrnF/FDH system, wild-type 4HPA3H. Type of data set: biochemical, E. coli. The conditions noted are these: substrate 1 mM, purified wild-type 4HPA3H, optimized conditions. As for the experimental part:
Purified 4HPA3H (A) or variants (B) (Y301I depicted in white and Y301F/S462A depicted in black) were used for conversion of substrates (1 mM) under optimized conditions. The numbers correspond to substrates as explained in the legend for FIG. 1 above.
In order to develop an effective and low-cost enzyme system for in vitro hydroxylation, several parameters of the 4HPA3H reaction with respect to maximum reaction rate were optimized. By means of a spectrophotometric assay (Example 4 above), the inventors screened different buffer systems and optimized the concentration of the components p-coumaric acid (1 cf. FIG. 1), FAD, NADH and methanol, the incubation temperature and oxygen transfer (i.e. by variation of the shaking frequency) (optimum conditions are given in the Experimental Section). […] In contrast to the cofactors, the accompanying cofactor recycling redox enzymes PrnF and FDH were used in excess due to their high specific activity.
In accordance with the whole-cell transformation experiments (FIG. 3), product yields in the conversion by the wild-type 4HPA3H (FIG. 8A) ranged from high (1, 13, 15 cf. FIG. 1) or moderate (5 cf. FIG. 1) to low (9, 11 cf. FIG. 1), whereas ferulic acid 3 was not oxidized. […] However, in contrast to the experiments with life biocatalysts […] conversion of naringenin (7 cf. FIG. 1) by the wild-type 4HPA3H (25% yield) was observed (which might be explained by increased substrate availability). The hydroxycarbazole (11) was not accepted by the double variant Y301F/S462A, probably because of the high substrate concentration which seems to reflect strong […] inhibition—an effect which has previously been observed for other 4HPA3H enzymes. Noteworthy, HPLC analysis of the reaction products confirmed product specificity.

In data set [3] the target is T3, 4HPA3H-Y301F/S462A (SEQ ID NO:175) (Escherichia coli, UniProt Q57160, S462A/Y301F).
T3 construct: made in house; host or cells: E. coli BL21(DE3)
As to the kind of experiment: Solid phase-based cascade (Talon column), hydroxylation of naringenin to eriodictyol. Type of data set: biochemical, E. coli. How it is done: Stock solutions of […] and eriodictyol (10 mM each) in methanol were produced (for the structure of the compounds, see FIG. 9). They were diluted using acetonitrile for obtaining the desired concentrations (70, 110, 140, 210 and 280 μM). 10 μl of each sample was injected in to a HPLC machine and calibration curves were produced for both substances (data not shown).
First the catalysis was performed using 9 mU oxidase 4HPA3H in a 10 ml reaction comprising 1 ml 1M Tris/HCl, pH 7.5; 25 μl of a 10 mM NADH solution, 20 μl of a 5 mM FAD solution and 1 ml formate solution using 9 mU 4HPA3H-Y301F/S462A (SEQ ID NO:175) and 0.57 mU PrnF-reductase (SEQ ID NO:176) and 640 mU FDH (SEQ ID NO:177). Subsequently the enzymes were mixes, 100 μl 1M Tris/HCl solution, pH 7.5, was added and ddH2O (deionized, reverse osmosis) was added ad 2 ml. The enzyme solution was at least 5 times passed through a 1 ml Talon column with a flow rate of 0.1 ml/min^−1 to let the proteins bind to the column in a homogenous way. The evaluation of the complete binding of the proteins to the column material was measured via Bradford assay. Then, the column was washed once with 50 mM Tris/HCl, pH 7.5 (=basis buffer), and connected to a peristaltic pump.
The constituents of each reaction mixture were transferred to a suitable sterile flask, which was then connected to a peristaltic pump. During reaction, the reaction mixture was slightly stirred with the help of a magnetic stirrer. Using a flow rate of 1 ml/min, the system was washed with the basis buffer for 2 min and a control sample was taken. Only then, the substrate was added, here 200 μM naringenin (from a 10 mM stock solution in methanol). The substrate was pumped over the Talon column having the enzymes bound thereto with a flow rate of 1 ml/min at maximum. During the time range from 0-1310 min, the sample extraction was performed in samples of 35 μl each. Said samples were mixed with an equal volume of acetonitrile and were immediately injected into a HPLC device (20 μl each). The evaluation was conducted with the help of a calibration curve done at the beginning of the experiment and thereby measuring and calculating the peak areas (see FIG. 10).
The same assay was performed using 35 mU hydroxylase/1 ml column volume and the concentration of the co-enzymes for regeneration of the cofactor was increased equivalently.

Data set [4] in a line: Whole-cell hydroxylation, variants compared with wild-type on well-accepted substrates. The conditions noted are these: whole cells.
Protocol: as §1, §2
Data set [5] can be described thus: In vitro catechol complex formation assay (4HPA3H/PrnF/FDH), p-coumaric acid. Type of data set: biochemical. To be noted: purified enzyme, optimized conditions, PrnF and FDH. How it is done: (A) Standard curve for the determination of caffeic acid (2 cf. FIG. 1). Mixtures of caffeic acid and p-coumaric acid (1) were incubated with FeCl3 and analyzed at 595 nm as described in the Experimental Section. (B) Time course of the oxidation of p-coumaric acid (1 cf. FIG. 1) by wild-type 4HPA3H. The enzymatic reaction was performed under optimized conditions, and produced caffeic acid (2 cf. FIG. 1) was detected as Fe^3+ complex. Data are the means±standard deviations obtained from three measurements.
For assaying 4HPA3H in microplate scale, 4HPA3H was incubated with PrnF, the substrate p-coumaric acid (1 cf. FIG. 1) and the formate dehydrogenase (FDH) from Candida boidinii. Similar as reported in our previous publication, this enzyme was introduced for regeneration of the costly cofactor NADH: NAD^+ formed during the reaction is recycled with sodium formate, yielding a sequential three-enzyme cascade for hydride transfer (FIG. 2). The conversion of p-coumaric acid (1 cf. FIG. 1) was measured spectrophotometrically by a previously established catechol complexation method (M. Dippe, B. Weigel, R. Heinke, T. Vogt, L. A. Wessjohann, 2014), which could be applied for quantitative determination of the product caffeic acid (see FIG. 6). […] However, similar to the data obtained from whole-cell biotransformations (see Example 2), these variants were beneficial in the conversion of ferulic acid (3 cf. FIG. 1), which is also reflected by comparably high conversion rates (4HPA3H-Y301F/S462A: 1.06±0.31 nmol min^−1 mg^−1, 4HPA3H-Y301I: 4.49±0.20 nmol min^−1 mg^−1).
In order to develop an effective and low-cost enzyme system for in vitro hydroxylation, several parameters of the 4HPA3H reaction with respect to maximum reaction rate were optimized. […]

In the case of `O=C(O)/C=C/c1ccc(O)cc1` [Compound 1, p-coumaric acid], in data set [1], the “acceptance as substrate” value is “high efficiency”. The “product yield” value in data set [2] is “high”.
For `COc1cc(/C=C/C(=O)O)ccc1O` [Compound 3, ferulic acid] the same measures were “not accepted” and “not oxidized”.
In the case of `O=c1ccc2ccc(O)cc2o1` [Compound 13, umbelliferone], the “product yield” value in data set [2] was “high”.
Same read-out and setting: the entry for `O=C(O)c1ccc(O)cc1` [Compound 9, p-hydroxybenzoic acid] is “low”.
Consider `Nc1ccc(C=CC(=O)O)cc1` [4-aminocinnamic acid], for which, in data set [1], the “acceptance as substrate” value is “no substrates”.
With `O=C1C[C@@H](c2ccc(O)c(O)c2)Oc2cc(O)cc(O)c21` [Compound 8, eriodictyol], the “biocatalytic formation of eriodictyol” value in data set [3] (9 mU enzyme/1 ml column, 200 μM naringenin, after 1290 min) turned out to be 42.4 µM. The eriodictyol yielded in data set [3] (35 mU hydroxylase/1 ml column volume, after 240 min) amounted to 67.7 µM.
On to `CC(=O)CCc1ccc(O)cc1` [Compound 15, rheosmin], for which the “conversion / yield of catechol product” value in data set [1] (substrate 200 μM, 16 hours, HPLC) stood at 100%. Also, the “product yield” value in data set [2] is “high”.
Take `COc1ccc(C=CC(=O)O)cc1` [4-methoxycinnamic acid]: the “acceptance as substrate” value in data set [1] was “no substrates”.
Regarding `Oc1ccc(C=Cc2cc(O)cc(O)c2)cc1` [Compound 5, resveratrol], the “product yield” value in data set [2] is given as “moderate”.

B1: S462A: 4HPA3H single variant S462A (protein, listed as Escherichia coli)
chain: MKPEDFRASTQRPFTGEEYLKSLQDGREIYIYGERVKDVTTHPAFRNAAASVAQLYDALHKPEMQDSLCWNTDTGSGGYTHKFFRVAKSADDLRQQRDAIAEWSRLSYGWMGRTPDYKAAFGCALGANPGFYGQFEQNARNWYTRIQETGLYFNHAIVNPPIDRHLPTDKVKDVYIKLEKETDAGIIVSGAKVVATNSALTHYNMIGFGSAQVMGENPDFALMFVAPMDADGVKLISRASYEMVAGATGSPYDYPLSSRFDENDAILVMDNVLIPWENVLIYRDFDRCRRWTMEGGFARMYPLQACVRLAVKLDFITALLKKSLECTGTLEFRGVQADLGEVVAWRNTFWALSDSMCSEATPWVNGAYLPDHAALQTYRVLAPMAYAKIKNIIERNVTSGLIYLPSSARDLNNPQIDQYLAKYVRGSNGMDHVQRIKILKLMWDAIGSEFGGRHELYEINYAGSQDEIRLQCLRQAQNSGNMDKMMAMVDRCLSEYDQDGWTVPHLHNNDDINMLDKLLK
modifications: 4HPA3H HpaB S462A
In the case of B1, the “activity towards substrates 1, 13, 15 compared with wild-type enzyme” value in data set [4] is given as “comparably active”.

B2: M293P: 4HPA3H single variant M293P (protein, listed as Escherichia coli)
chain: MKPEDFRASTQRPFTGEEYLKSLQDGREIYIYGERVKDVTTHPAFRNAAASVAQLYDALHKPEMQDSLCWNTDTGSGGYTHKFFRVAKSADDLRQQRDAIAEWSRLSYGWMGRTPDYKAAFGCALGANPGFYGQFEQNARNWYTRIQETGLYFNHAIVNPPIDRHLPTDKVKDVYIKLEKETDAGIIVSGAKVVATNSALTHYNMIGFGSAQVMGENPDFALMFVAPMDADGVKLISRASYEMVAGATGSPYDYPLSSRFDENDAILVMDNVLIPWENVLIYRDFDRCRRWTPEGGFARMYPLQACVRLAVKLDFITALLKKSLECTGTLEFRGVQADLGEVVAWRNTFWALSDSMCSEATPWVNGAYLPDHAALQTYRVLAPMAYAKIKNIIERNVTSGLIYLPSSARDLNNPQIDQYLAKYVRGSNGMDHVQRIKILKLMWDAIGSEFGGRHELYEINYSGSQDEIRLQCLRQAQNSGNMDKMMAMVDRCLSEYDQDGWTVPHLHNNDDINMLDKLLK
modifications: 4HPA3H HpaB M293P
For B2, the “activity towards substrates 1, 13, 15 compared with wild-type enzyme” value in data set [4] is listed as “reduced activity”.

B3: 4HPA3H: wild-type 4-hydroxyphenylacetate 3-hydroxylase from E. coli, SEQ ID NO:98 (protein, listed as Escherichia coli)
chain: MKPEDFRASTQRPFTGEEYLKSLQDGREIYIYGERVKDVTTHPAFRNAAASVAQLYDALHKPEMQDSLCWNTDTGSGGYTHKFFRVAKSADDLRQQRDAIAEWSRLSYGWMGRTPDYKAAFGCALGANPGFYGQFEQNARNWYTRIQETGLYFNHAIVNPPIDRHLPTDKVKDVYIKLEKETDAGIIVSGAKVVATNSALTHYNMIGFGSAQVMGENPDFALMFVAPMDADGVKLISRASYEMVAGATGSPYDYPLSSRFDENDAILVMDNVLIPWENVLIYRDFDRCRRWTMEGGFARMYPLQACVRLAVKLDFITALLKKSLECTGTLEFRGVQADLGEVVAWRNTFWALSDSMCSEATPWVNGAYLPDHAALQTYRVLAPMAYAKIKNIIERNVTSGLIYLPSSARDLNNPQIDQYLAKYVRGSNGMDHVQRIKILKLMWDAIGSEFGGRHELYEINYSGSQDEIRLQCLRQAQNSGNMDKMMAMVDRCLSEYDQDGWTVPHLHNNDDINMLDKLLK
modifications: 4HPA3H HpaB wt
On to B3, for which the “specific activity towards p-coumaric acid (1)” value in data set [5] was found to be 6.2 ± 0.5 nmol/min/mg.
